Assay results taken from ChEMBL document CHEMBL1136587, “Optimisation of aryl substitution leading to potent methionyl tRNA synthetase inhibitors with excellent gram-positive antibacterial activity” (Bioorg Med Chem Lett, 2003).
Values after ≈ are worked out from the molar mass of the structure shown.

Assays:
Staphylococcus aureus [1] = experiment: In vitro Antibacterial activity of compound against Staphylococcus aureus Oxford; assay type: functional
Enterococcus faecalis = experiment: In vitro Antibacterial activity of compound against Enterococcus faecalis 1; assay type: functional
Enterococcus faecium = experiment: In vitro Antibacterial activity of compound against Enterococcus faecium
[2] = test system: Staphylococcus epidermidis; experiment: In vitro Antibacterial activity of compound against Staphylococcus epidermidis
Staphylococcus aureus [3] = experiment: In vitro Antibacterial activity of compound against Staphylococcus aureus
[4] = target: Methionine--tRNA ligase (Enterococcus faecalis (strain ATCC 700802 / V583)) (UniProt Q837B3); experiment: In vitro Antibacterial activity of compound against Enterococcus faecalis; assay type: functional
[5] = target: Methionine--tRNA ligase (Enterococcus faecalis (strain ATCC 700802 / V583)) (UniProt Q837B3); experiment: In vitro Antibacterial activity of compound against Enterococcus faecalis 7; assay type: functional

Methionine--tRNA ligase (Enterococcus faecalis (strain ATCC 700802 / V583)), sequence (Q837B3 whole entry): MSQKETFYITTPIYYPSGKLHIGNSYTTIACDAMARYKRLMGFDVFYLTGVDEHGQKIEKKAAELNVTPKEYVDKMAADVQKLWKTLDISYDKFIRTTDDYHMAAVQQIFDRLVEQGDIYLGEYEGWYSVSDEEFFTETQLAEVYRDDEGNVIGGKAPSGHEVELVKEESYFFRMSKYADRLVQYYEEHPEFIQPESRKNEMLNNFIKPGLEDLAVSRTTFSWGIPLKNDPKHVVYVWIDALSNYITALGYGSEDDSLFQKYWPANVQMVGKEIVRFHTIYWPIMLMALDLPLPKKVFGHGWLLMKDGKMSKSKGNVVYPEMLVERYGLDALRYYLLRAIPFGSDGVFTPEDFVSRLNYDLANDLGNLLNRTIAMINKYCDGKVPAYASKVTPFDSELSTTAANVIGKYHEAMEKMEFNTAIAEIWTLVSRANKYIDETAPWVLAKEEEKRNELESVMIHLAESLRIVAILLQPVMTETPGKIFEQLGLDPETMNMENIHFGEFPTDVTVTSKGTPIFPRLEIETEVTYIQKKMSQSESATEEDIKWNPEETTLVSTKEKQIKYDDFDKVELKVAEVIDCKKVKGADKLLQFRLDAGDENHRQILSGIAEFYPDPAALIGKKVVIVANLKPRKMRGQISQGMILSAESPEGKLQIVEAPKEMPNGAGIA

SMILES	MIC (Staphylococcus aureus [1]) [mg/L]	MIC (Enterococcus faecalis) [mg/L]	other results
CCOc1c(Br)cc([S+](C)[O-])cc1CNCCCNc1cc(O)c2ccccc2n1 (stereo not given)	4 (≈ 8.12 µM)	2 (≈ 4.06 µM)	
Oc1cc(NCCCNCc2cc(I)cc(I)c2)nc2ccccc12	< 0.06	< 0.06	
O=c1cc(NCCCNCc2ccc(Cl)c(Cl)c2)[nH]c2ccccc12	4 (≈ 10.6 µM)	2 (≈ 5.32 µM)	
CCOc1c(C#N)cc(Br)cc1CNCCCNc1cc(O)c2ccccc2n1	0.5 (≈ 1.1 µM)	0.25 (≈ 0.549 µM)	
CCOc1c(C)cc(Cl)cc1CNCCCNc1cc(O)c2ccccc2n1	0.25 (≈ 0.625 µM)	< 0.06	
Oc1cc(NCCCNC2CCc3c(Cl)cc(Cl)cc32)nc2ccccc12 (stereo not given)	0.25 (≈ 0.621 µM)	< 0.06	
Oc1cc(NCCCNC2COc3c(Cl)cc(Cl)cc32)nc2ccccc12 (stereo not given)	2 (≈ 4.95 µM)	0.125 (≈ 0.309 µM)	
CCc1cc(I)c2c(c1)C(NCCCNc1cc(=O)c3ccccc3[nH]1)CCN2 (stereo not given)	0.25 (≈ 0.498 µM)	< 0.06	MIC90 (Enterococcus faecium): 0.06 mg/L (≈ 0.119 µM); MIC90 [2]: 1 mg/L (≈ 1.99 µM); MIC90 (Staphylococcus aureus [3]): 1 mg/L (≈ 1.99 µM); MIC90 [4]: 0.25 mg/L (≈ 0.498 µM)
C=CCc1cc(I)cc(CNCCCNc2cc(O)c3ccccc3n2)c1OCC	0.13 (≈ 0.251 µM)	1 (≈ 1.93 µM)	
Oc1cc(NCCCNCc2cc(Cl)cc(Cl)c2)nc2ccccc12	1 (≈ 2.66 µM)	0.13 (≈ 0.345 µM)	
Oc1cc(NCCCNCc2ccccc2)nc2ccccc12	> 64	> 64	
Oc1cc(NCCCNC2CCNc3c(Br)cc(Cl)cc32)nc2ccccc12 (stereo not given)	< 0.06	< 0.06	MIC90 (Enterococcus faecium): < 0.016 mg/L; MIC90 [2]: 1 mg/L (≈ 2.17 µM); MIC90 (Staphylococcus aureus [3]): 1 mg/L (≈ 2.17 µM); MIC90 [4]: 0.06 mg/L (≈ 0.13 µM)
Oc1cc(NCCCNCc2cc(Cl)ccc2Cl)nc2ccccc12	4 (≈ 10.6 µM)	16 (≈ 42.5 µM)	
CC(C)Oc1c(Cl)cc(Cl)cc1CNCCCNc1cc(O)c2ccccc2n1	2 (≈ 4.6 µM)		MIC [5]: 0.5 mg/L (≈ 1.15 µM)
CCOc1c(CNCCCNc2cc(O)c3ccccc3n2)cc(I)cc1COC	16 (≈ 30.7 µM)	8 (≈ 15.3 µM)	
Oc1cc(NCCCNC2CCNc3c(Br)cc(Br)cc32)nc2ccccc12 (stereo not given)	< 0.06	< 0.06	MIC90 (Enterococcus faecium): < 0.016 mg/L; MIC90 [2]: 0.5 mg/L (≈ 0.988 µM); MIC90 (Staphylococcus aureus [3]): 0.5 mg/L (≈ 0.988 µM); MIC90 [4]: 0.03 mg/L (≈ 0.0593 µM)
Cc1cc(Br)c2c(c1)C(NCCCNc1cc(O)c3ccccc3n1)CCN2 (stereo not given)	1 (≈ 2.27 µM)	0.25 (≈ 0.566 µM)	
O=c1cc(NCCCNC2CCOc3c(I)cc(Cl)cc32)[nH]c2ccccc12 (stereo not given)	< 0.06	< 0.06	MIC90 [2]: 0.25 mg/L (≈ 0.49 µM); MIC90 (Staphylococcus aureus [3]): 0.25 mg/L (≈ 0.49 µM)
CCOc1c(CNCCCNc2cc(=O)c3ccccc3[nH]2)cc(I)cc1C(C)(C)C	32 (≈ 60 µM)	8 (≈ 15 µM)	
CCOc1c(CO)cc(I)cc1CNCCCNc1cc(O)c2ccccc2n1	32 (≈ 63.1 µM)	32 (≈ 63.1 µM)	
CCNc1c(Br)cc(Br)cc1CNCCCNc1cc(O)c2ccccc2n1	1 (≈ 1.97 µM)	< 0.06	
CCOc1c(C)cc(I)cc1CNCCCNc1cc(O)c2ccccc2n1	< 0.06	< 0.06	
CCOc1c(I)cc(OC)cc1CNCCCNc1cc(O)c2ccccc2n1	0.5 (≈ 0.985 µM)	0.13 (≈ 0.256 µM)	

SMILES	MIC (Staphylococcus aureus [1]) [mg/L]	MIC (Enterococcus faecalis) [mg/L]	other results
CCOc1c(Br)cc(C)cc1CNCCCNc1cc(O)c2ccccc2n1	2 (≈ 4.5 µM)	0.25 (≈ 0.563 µM)	
CNc1c(Br)cc(Br)cc1CNCCCNc1cc(O)c2ccccc2n1	0.5 (≈ 1.01 µM)	0.13 (≈ 0.263 µM)	
CCc1cc(Br)cc2c1NCCC2NCCCNc1cc(O)c2ccccc2n1 (stereo not given)	0.25 (≈ 0.549 µM)	< 0.06	
Oc1cc(NCCCOCc2ccc(Cl)c(Cl)c2)nc2ccccc12	> 64	> 64	
Oc1cc(NCCCNCc2cc(Br)cc(I)c2)nc2ccccc12	< 0.06	< 0.06	
Oc1cc(NCCCNCc2ccc(Cl)cc2Cl)nc2ccccc12	4 (≈ 10.6 µM)		MIC [5]: 4 mg/L (≈ 10.6 µM)
Oc1cc(NCCCNCc2cc(Cl)cc(Cl)c2Cl)nc2ccccc12	0.25 (≈ 0.609 µM)		MIC [5]: < 0.06 mg/L
CCOc1c(C)cc(C(F)(F)F)cc1CNCCCNc1cc(=O)c2ccccc2[nH]1	0.5 (≈ 1.15 µM)	0.25 (≈ 0.577 µM)	
CCOc1c(Br)cc(SC)cc1CNCCCNc1cc(O)c2ccccc2n1	< 0.06	< 0.06	MIC90 (Enterococcus faecium): 0.5 mg/L (≈ 1.05 µM); MIC90 [2]: 0.25 mg/L (≈ 0.525 µM); MIC90 (Staphylococcus aureus [3]): 0.25 mg/L (≈ 0.525 µM); MIC90 [4]: 0.5 mg/L (≈ 1.05 µM)
CCOc1c(Br)cc(C#N)cc1CNCCCNc1cc(O)c2ccccc2n1	4 (≈ 8.78 µM)	1 (≈ 2.2 µM)	
CCOc1c(I)cc(C)cc1CNCCCNc1cc(O)c2ccccc2n1	2 (≈ 4.07 µM)	0.5 (≈ 1.02 µM)	
Oc1cc(NCCCSCc2ccc(Cl)c(Cl)c2)nc2ccccc12	> 64	> 64	
Oc1cc(NCCCNCc2cc(Br)cc(Br)c2OCC(F)(F)F)nc2ccccc12	0.25 (≈ 0.444 µM)	< 0.06	
O=c1cc(NCCCNC2CCOc3c(Cl)cc(Cl)cc32)[nH]c2ccccc12 (stereo not given)	0.13 (≈ 0.311 µM)	< 0.06	
CCOc1c(Cl)cc(Cl)cc1CNCCCNc1cc(O)c2ccccc2n1	0.13 (≈ 0.309 µM)	< 0.06	MIC90 (Enterococcus faecium): < 0.016 mg/L; MIC90 [2]: 2 mg/L (≈ 4.76 µM); MIC90 (Staphylococcus aureus [3]): 2 mg/L (≈ 4.76 µM); MIC90 [4]: 0.06 mg/L (≈ 0.143 µM)
Oc1cc(NCCCNC2CCOc3c(Cl)cc(I)cc32)nc2ccccc12 (stereo not given)	0.13 (≈ 0.255 µM)	< 0.06	
CCOc1c(I)cc(COC)cc1CNCCCNc1cc(O)c2ccccc2n1	8 (≈ 15.3 µM)	2 (≈ 3.84 µM)	
Oc1cc(NCCCNCc2cc(Br)cc(Br)c2)nc2ccccc12	0.25 (≈ 0.537 µM)	< 0.06	
CCOc1c(CNCCCNc2cc(O)c3ccccc3n2)cc(Br)cc1OC	4 (≈ 8.69 µM)	2 (≈ 4.34 µM)	
CCOc1c(I)cc(I)cc1CNCCCNc1cc(O)c2ccccc2n1	< 0.06	< 0.06	
CCOc1cc(Br)c(OCC)c(CNCCCNc2cc(O)c3ccccc3n2)c1	8 (≈ 16.9 µM)	4 (≈ 8.43 µM)	
CCOc1c(Br)cc(S(C)(=O)=O)cc1CNCCCNc1cc(O)c2ccccc2n1	> 64	8 (≈ 15.7 µM)	
CCOc1c(CNCCCNc2cc(O)c3ccccc3n2)cc(Br)cc1SC	0.5 (≈ 1.05 µM)	1 (≈ 2.1 µM)	

SMILES	MIC (Staphylococcus aureus [1]) [mg/L]	MIC (Enterococcus faecalis) [mg/L]	other results
CCOc1c(Br)cc(Br)cc1CNCCCNc1cc(O)c2ccccc2n1	< 0.06	< 0.06	
CCOc1c(C)cc(C#N)cc1CNCCCNc1cc(O)c2ccccc2n1	8 (≈ 20.5 µM)	4 (≈ 10.2 µM)	
Oc1cc(NCCCNC2CCNc3c(Cl)cc(Cl)cc32)nc2ccccc12 (stereo not given)	0.13 (≈ 0.311 µM)	< 0.06	
O=C(NCCCNc1cc(O)c2ccccc2n1)c1ccc(Cl)c(Cl)c1	> 64	> 64	
CCOC(=O)c1cc(I)c(OCC)c(CNCCCNc2cc(O)c3ccccc3n2)c1	32 (≈ 58.2 µM)	8 (≈ 14.6 µM)	
C=CCOc1c(Cl)cc(Cl)cc1CNCCCNc1cc(O)c2ccccc2n1	0.5 (≈ 1.16 µM)	< 0.06	
CCOc1c(CNCCCNc2cc(O)c3ccccc3n2)cc(I)cc1OC	2 (≈ 3.94 µM)	< 0.06	
CCOc1c(I)cc(Br)cc1CNCCCNc1cc(O)c2ccccc2n1	< 0.06	< 0.06	
Cc1cc(Br)cc2c1NCCC2NCCCNc1cc(O)c2ccccc2n1 (stereo not given)	0.5 (≈ 1.13 µM)	< 0.06	
Oc1cc(NCCCNC2CCNc3c(Cl)cc(Br)cc32)nc2ccccc12 (stereo not given)	< 0.06	< 0.06	
Oc1cc(NCCCNCc2cccc(Cl)c2Cl)nc2ccccc12	8 (≈ 21.3 µM)		MIC [5]: 2 mg/L (≈ 5.32 µM)
CCOc1c(I)cc(CO)cc1CNCCCNc1cc(O)c2ccccc2n1	> 64	> 64	
Oc1cc(NCCCNC2CCCc3c(Cl)cc(Cl)cc32)nc2ccccc12 (stereo not given)	0.25 (≈ 0.6 µM)	< 0.06	
Nc1c(Br)cc(Br)cc1CNCCCNc1cc(O)c2ccccc2n1	0.13 (≈ 0.271 µM)	< 0.06	
CCOc1c(Br)cc(I)cc1CNCCCNc1cc(O)c2ccccc2n1	< 0.06	< 0.06	
CCOc1c(C)cc(Br)cc1CNCCCNc1cc(O)c2ccccc2n1	0.13 (≈ 0.293 µM)	< 0.06	
CCOC(=O)c1cc(I)cc(CNCCCNc2cc(O)c3ccccc3n2)c1OCC	32 (≈ 58.2 µM)	8 (≈ 14.6 µM)	
O=c1cc(NCCCNC2CCOc3c(Br)cc(Br)cc32)[nH]c2ccccc12 (stereo not given)	< 0.06	< 0.06	
CCOc1c(C)cc(SC)cc1CNCCCNc1cc(O)c2ccccc2n1	< 0.06	< 0.06	
CCOc1c(Cl)cc(OC)cc1CNCCCNc1cc(O)c2ccccc2n1	0.25 (≈ 0.601 µM)	< 0.06	
CCOc1c(Br)cc(OC)cc1CNCCCNc1cc(O)c2ccccc2n1	0.13 (≈ 0.282 µM)	< 0.06	MIC90 (Enterococcus faecium): 0.03 mg/L (≈ 0.0652 µM); MIC90 [2]: 2 mg/L (≈ 4.34 µM); MIC90 (Staphylococcus aureus [3]): 2 mg/L (≈ 4.34 µM); MIC90 [4]: 0.06 mg/L (≈ 0.13 µM)
